Experimental data taken from patent US7473783B2, “Bicyclic pyrazolo protein kinase modulators” (SGX Pharmaceuticals, Inc., priority 2003, dated 2009).
Substitutions are numbered along the chain they refer to. pIC50: −log10 of the molar value.

Tests used:
Type in all cases: biochemical
[1] = target: T1, autophosphorylated FLT3 kinase domain (FLT3KD) (Homo sapiens, UniProt P36888); assay: FLT3 kinase assay (PK/LDH coupled, NADH loss at 340 nm); details: 250 μM ATP
T1 construct: purified and autophosphorylated FLT3 kinase domain (FLT3KD); 6xHis (C); made in house; host or cells: baculovirus, SF9 / SF21 insect cells
T1 sequence (P36888 610-943 limits assumed): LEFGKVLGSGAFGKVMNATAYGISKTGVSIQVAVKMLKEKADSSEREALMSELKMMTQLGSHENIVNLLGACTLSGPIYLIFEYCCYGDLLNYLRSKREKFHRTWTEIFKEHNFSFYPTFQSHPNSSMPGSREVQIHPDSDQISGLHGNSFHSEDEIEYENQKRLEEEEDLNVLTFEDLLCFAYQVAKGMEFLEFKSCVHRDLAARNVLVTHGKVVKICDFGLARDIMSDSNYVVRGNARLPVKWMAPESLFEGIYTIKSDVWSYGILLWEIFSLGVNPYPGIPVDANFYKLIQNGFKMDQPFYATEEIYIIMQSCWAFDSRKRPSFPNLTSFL
Source text: Although this example presents the use of the FLT3 kinase domain, the kinase assays may use various forms of FLT3, including, for example, the entire molecule, the kinase domain, or a portion thereof.
Materials : Substrate peptide=Poly (Glu, Tyr) 4:1=poly EY (Sigma P-0275); βNADH (Sigma CAT#N-8129, FW=709.4); 2M MgCl2; 1M HEPES buffer, pH 7.5; Phosphoenolpyruvate=PEP (Sigma CAT#P-7002, FW=234); Lactate dehydrogenase=LDH (Worthington Biochemical CAT#2756); Pyruvate Kinase=PK (Sigma CAT#P-9136); ATP (Sigma CAT#A-3377, FW=551); Greiner 384-well UV star plate; and purified and autophosphorylated FLT3 kinase domain (FLT3KD).
Stock Solutions: 10 mM NADH (7.09 mg/mL in miliQH2O) make fresh daily; 1 mg/mL Poly EY (in miliQH2O) store at −20° C.; 200mM HEPES buffer, pH 7.5 (10 ml 1M stock+40 ml miliQH2O) supplemented with 1 mM DTT; 100 mM MgCl2 (5 mL+95 ml dH2)); 100 mM PEP (23.4 mg/mL in dH2O) store at −20° C.; 10 mM ATP (5.51 mg/mL in dH2O) store at −20° C. (dilute 1 mL into total of 10 mL miliQH2O daily=1 mM ATP working stock); 1000 U/mL PK (U/mg varies with lot) flash-freeze under liquid N2 and store at −80° C.; 1000 U/mL LDH (U/mg varies with lot) flash-freeze under liquid N2 and store at −80° C.
Standard Assay Setup for 384-well format (50 μl reaction): 300 μM NADH; 10 mM MgCl2; 2 mM PEP; 45 U/mL PK; 60 U/mL LDH; 1 mg/mL Poly EY; 2.5 μL test compound (in DMSO); 10 μg/mL autophosphorylated FLT3 kinase domain; 250 μM ATP*; 100 mM HEPES buffer; QS with miliQ dH2O to 50 μL. Positive controls contained DMSO with no test compound. Negative controls contained 5 μl of 0.5M EDTA (50 mM in the assay). The kinase reaction was initiated at time t=0 by the addition of ATP.
The unphosphorylated FLT3KD that was produced required pre-incubation with MgATP to allow for autophosphorylation and full kinase activity. The autophosphorylation reaction was run in 100 mM HEPES buffer, 1 mM DTT, and 1 mg/mL FLT3KD by the addition of ATP and MgCl2 to a final concentration of 2 mM and 10 mM respectively. The reaction was allowed to proceed at room temperature for 90 minutes, and then was quenched by the addition of EDTA to 50 mM. The autophosphorylated protein was then aliquotted and flash frozen in liquid N2 for use.
(§1) The activity was measured by following the time-dependent loss of NADH by absorbance spectroscopy at 340 nm. The linear portion of the resulting progress curve was then be analyzed by linear regression to get the activity in absorbance units/time, reported as the slope of that best fit line (moles/unit time can be calculated from using molar extinction coeffecient for NADH at 340 nm, 6250M^−1cm^−1).
Data was analyzed using the equation: Z′=1−[3*(σ++σ−)/|μ+−μ−|], where μ denotes the mean and σ the standard deviation. The subscript designates positive or negative controls. The Z′ score for a robust screening assay should be ≧0.50. The typical threshold=μ+−3*σ+. Any value that falls below the threshold was designated a “hit.”
The dose response was measured using the equation: y=min+{(max−min)/1+10^[compound]-logIC50)}, where y is the observed initial slope, max is the slope in the absence of inhibitor, min is the slope at infinite inhibitor, and the IC50 is the [compound] that corresponds to ½ the total observed amplitude (Amplitude=max−min). The IC50 is related to the Ki by the following equation: IC50=Ki(1+[ATP]/Km).
To measure modulation, activation, or inhibition of FLT3KD, a test compound was added to the assay at a range of concentrations. Inhibitors may inhibit FLT3KD activity at an IC50 in the micromolar range, the nanomolar range, and, for example, in the subnanomolar range. […]

[2] = target: T2, Abl T315I kinase domain, unphosphorylated (Mus musculus, UniProt P00520, T315I); assay: Abl T315I kinase assay (PK/LDH coupled, NADH loss at 340 nm); details: Table 8; 10 μM ATP; zero phosphorylation state
T2 construct: Purified and unphosphorylated T315I Abl kinase domain (clone 5582d42PPt6p6); made in house; host or cells: E. coli BL21(DE3) pSA0145, phosphatase co-expression plasmid
T2 sequence (P00520 242-493 T315I limits assumed): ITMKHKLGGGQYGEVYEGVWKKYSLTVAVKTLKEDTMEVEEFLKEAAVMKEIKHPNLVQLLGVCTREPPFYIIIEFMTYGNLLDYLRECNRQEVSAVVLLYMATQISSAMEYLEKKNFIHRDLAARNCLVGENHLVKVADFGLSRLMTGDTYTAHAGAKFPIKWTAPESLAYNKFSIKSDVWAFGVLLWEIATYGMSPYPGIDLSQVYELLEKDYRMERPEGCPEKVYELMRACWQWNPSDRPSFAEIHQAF
Source text: (§2) Although this example presents the use of the kinase domain of a mutant form of Abl T315I 0-P, the kinase assays may use various forms of mutant and wild type Abl, including, for example, the entire molecule, the kinase domain, or a portion thereof. The kinases used in the assays may also be of varying phophorylation states. In the present example, a mutant kinase at a zero phosphorylation state was used.
(§3) Materials: Abl substrate peptide=EAIYAAPFAKKK-OH (Biopeptide, SD CA); βNADH (Sigma CAT#N-8129, FW=709.4); 2M MgCl2; 1M HEPES buffer, pH 7.5; Phosphoenolpyruvate=PEP (Sigma CAT#P-7002, FW=234); Lactate dehydrogenase=LDH (Worthington Biochemical CAT#2756); Pyruvate Kinase=PK (Sigma CAT#P-9136); ATP (Sigma CAT#A-3377, FW=551); Greiner 384-well UV star plate; and Purified and unphosphorylated T315I Abl kinase domain (clone 5582d42PPt6p6).
(§4) Stock Solutions: 10 mM NADH (7.09 mg/mL in miliQH2O) make fresh daily; 10 mM Abl substrate peptide (13.4 mg/mL in miliQH2O) store at −20° C.; 100 mM HEPES buffer, pH 7.5 (5 mL 1M stock+45 mL miliQH2O); 100 mM MgCl2 (5 mL 2M MgCl2+95 ml dH2O); 100 mM PEP (23.4 mg/mL in dH2O) store at −20° C.; 10 mM ATP (5.51 mg/mL in dH2O) store at −20° C. (dilute 50 μL into total of 10 mL miliQH2O daily=50 μM ATP working stock); 1000 U/mL PK (U/mg varies with lot) flash-freeze under liquid N2 and store at −80° C.; and 1000 U/mL LDH (U/mg varies with lot) flash-freeze under liquid N2 and store at −80° C.
(§5) Standard Assay Setup for 384-well format (50 μl reaction): 300 μM NADH; 10 mM MgCl2; 2 mM PEP; 45 U/mL PK; 60 U/mL LDH; 200 μM Abl substrate peptide; 2.5 μL test compound (in DMSO); 2 μg/mL Abl kinase domain; 10 μM ATP; 100 mM HEPES buffer; QS with miliQ dH2O to 50 μL; Positive controls contained DMSO with no test compound. Negative controls contained 5 μl of 0.5M EDTA (50 mM in the assay). The dephosphorylated form of the c-Abl T315I mutant were used in the biochemical screening assays. The kinase reaction was initiated at time t=0 by the addition of ATP.
as §1, with “coefficient” for “coeffecient”
(§6) Data was analyzed using the equation: Z′=1-[3*(σ++σ−)/|μ+−μ−|], where μ denotes the mean and σ the standard deviation. The subscript designates positive or negative controls. The Z′ score for a robust screening assay should be ≧0.50. The typical threshold=μ+−3*σ+. Any value that falls below the threshold was designated a “hit”.
(§7) Dose response was analyzed using the equation: y=min+{(max−min)/(1+10^[compound]-logIC50)}, where y is the observed initial slope, max=the slope in the absence of inhibitor, min=the slope at infinite inhibitor, and the IC50 is the [compound] that corresponds to ½ the total observed amplitude (Amplitude=max−min).
(§8) To measure modulation, activation, or inhibition of AblKD, a test compound was added to the assay at a range of concentrations. Inhibitors may inhibit AblKD activity at an IC50 in the micromolar range, the nanomolar range, and, for example, in the subnanomolar range.
(§9) To measure the binding of a compound to Abl or AblKD, a test kit manufactured by Discoverx (Fremont, Calif.), ED—Staurosporine NSIP™ Enzyme Binding Assay Kit (see U.S. Pat. No. 5,643,734) was used.

Abl Y393F = target: T3, Abl Y393F (Mus musculus, UniProt P00520, Y393F); assay: Abl Y393F kinase assay; details: Table 8
T3 construct: 2 μg/mL Abl kinase domain; made in house
T3 sequence (P00520 242-493 Y393F limits assumed): T2 sequence (P00520 242-493 T315I limits assumed) with I74T, Y152F
Source text: as §2, §3, §4, §5
as §1, with “coefficient” for “coeffecient”
as §6, §7, §8, §9

Row | SMILES | pIC50 ([1]; Table 6) | pIC50 [2] | pIC50 (Abl Y393F) | other results
1 | O=C(Nc1nc2[nH]nc(-c3cccc(C(F)(F)F)c3)c2s1)c1ccccc1 | – | – | – | pIC50 ([1]; Table 5): 5.00 to 6.00
2 | O=C(Nc1nc2[nH]nc(-c3ccncc3)c2s1)c1ccccc1 | > 7.00 | – | – | –
3 | O=C(Nc1nc2[nH]nc(-c3ccco3)c2s1)c1ccccc1 | 6.00 to 7.00 | – | – | –
4 | CC(C)(C)c1n[nH]c2nc(NC(=O)c3ccncc3)sc12 | < 6.00 | – | – | –
5 | CC(=O)Nc1nc2[nH]nc(-c3ccccc3Cl)c2s1 | – | < 6.00 | < 6.00 | –
6 | O=C(Nc1nc2[nH]nc(-c3ccccc3)c2s1)c1cccs1 | – | 6.00 to 6.30 | 6.00 to 6.30 | –
7 | O=C(Nc1nc2[nH]nc(-c3cccc(Br)c3)c2s1)c1ccccc1 | – | < 6.00 | < 6.00 | –
8 | COCC(=O)Nc1nc2[nH]nc(-c3ccccc3)c2s1 | – | < 6.00 | < 6.00 | –
9 | O=C(Nc1nc2[nH]nc(-c3ccc(Cl)cc3)c2s1)c1ccccc1 [drawing 246] | – | – | – | pIC50 ([1]; Table 5): > 6.00
10 | O=C(Nc1nc2[nH]nc(-c3ccccc3)c2s1)c1ccncc1 [drawing 248] | – | – | – | pIC50 ([1]; Table 5): > 6.00
11 | O=C(Nc1nc2[nH]nc(-c3ccccc3)c2s1)c1cccc(Br)c1 [drawing 249] | – | – | – | pIC50 ([1]; Table 5): 5.00 to 6.00
12 | COCCOCC(=O)Nc1nc2[nH]nc(-c3ccccc3)c2s1 [drawing 250] | – | – | – | pIC50 ([1]; Table 5): 5.00 to 6.00
13 | CC(=O)N1CCC(C(=O)Nc2nc3[nH]nc(-c4ccccc4)c3s2)CC1 [drawing 251] | – | – | – | pIC50 ([1]; Table 5): 5.00 to 6.00
14 | O=C(Nc1nc2[nH]nc(-c3ccc(O)cc3)c2s1)C1CC1 [drawing 254] | > 7.00 | – | – | –
15 | O=C(Nc1nc2[nH]nc(-c3ccccc3)c2s1)c1cccc(Br)c1 [drawing 259] | < 6.00 | – | – | –
16 | O=C(Nc1nc2[nH]nc(-c3ccccc3Br)c2s1)C1CC1 [drawing 267] | – | > 6.30 | > 6.30 | –
17 | O=C(Nc1nc2[nH]nc(-c3ccccc3)c2s1)c1ccco1 [drawing 268] | – | > 6.30 | > 6.30 | –

Continued, in another order:

Row | pIC50 ([1]; Table 6) | pIC50 [2] | pIC50 (Abl Y393F) | SMILES | other results
18 | > 7.00 | – | – | O=C(Nc1nc2[nH]nc(-c3ccccc3)c2s1)c1ccno1 | –
19 | 6.00 to 7.00 | – | – | CC(C)(C)c1n[nH]c2nc(NC(=O)c3ccccc3)sc12 | –
20 | 6.00 to 7.00 | – | – | O=C(Nc1nc2[nH]nc(-c3ccccn3)c2s1)c1ccco1 | –
21 | – | > 6.30 | > 6.30 | O=C(Nc1nc2[nH]nc(-c3ccccc3Cl)c2s1)C1CC1 [drawing 266] | –
22 | – | 6.00 to 6.30 | < 6.00 | COc1ccc(-c2n[nH]c3nc(NC(=O)C4CC4)sc23)cc1 [drawing 271] | –
